Measured values taken from article PMC8333425, “Discovery of a dual Ras and ARF6 inhibitor from a GPCR endocytosis screen” (Nature Communications, 2021).
Several values for one entry are separate records, joined by “and”; a condition that tells them apart may be missing. Equal entries are not always repeated.

Columns and labels:
[1] = test system: ERK1/2 activation by EGFR; assay: Western blot of EGFR-mediated ERK1/2 phosphorylation; assay type: cell-based, human; conditions: for p-ERK1/2 over ERK1/2, normalized to basal (0 min), EGFR: Comp 21 50 μM; for p-ERK1/2 over ERK1/2, normalized to basal (0 min), EGFR / ERK 1/2 activation, EGFR (p-ERK1/2 over ERK1/2, fold over basal): individual experiments
Protocol: HEK293SL cells (10^5 cells per well) were seeded in a poly-L-lysine-coated six-well plate and transiently transfected with 3 μg Flag-AT1R, HA-B2R or HA-β2AR and/or 500 ng Flag-MEK1-WT, Flag-MEK1-DD, Flag-BRAF-WT, Flag-BRAF-V600E, Flag-K-Ras-WT, Flag-K-Ras-G12V, HA-ARF6-WT, or HA-ARF6-T27N. Gαq/11 KO and βarr1/2 KO cells were seeded onto 100 mm dishes at a density of 10^6 cells per dish. Next day, cells were transfected with 3 μg AT1R alone or along with 500 ng of β-arrestin2 using PEI. After 18 h of transfection, cells were detached and re-seeded onto poly-L-lysine coated 12-well plates (~1.5–2 × 10^5cells/well) for subsequent experiments. Forty-eight hours post transfection, in a 37 °C water bath, cells were serum-starved for 30 min, pretreated with DMSO (0.1%) or compound 21/Rasarfin (50 µM or at indicated concentrations) for 30 min, then stimulated or not with the indicated ligand [AngII (1 µM), BK (1 µM), Iso (10 µM) or EGF (100 ng/ml)] at indicated times. Cells were put on ice, washed with PBS and solubilized in 2x laemmli buffer (250 mM Tris–HCl pH 6.8, 2% SDS (w/v), 10% glycerol (v/v), 0.01% bromophenol blue (w/v) and 5% β-mercaptoethanol (v/v)) by heating at 65 °C for 15 min. Lysates were resolved on 10 or 14% SDS-PAGE, transferred to nitrocellulose membranes and immunoblotted for p-ERK1/2, ERK1/2, p-Akt, Akt, HA, Myc, β-actin or FLAG. ImageLab 5.2 software was used to quantify the digital blots as fold of the phosphorylated protein over total protein, which were then normalized as indicated in the figure legends. Uncropped immunoblots are provided in the Source Data file.

Gαq = target: T1, Gαq (Homo sapiens, UniProt P50148); assay: Gαq BRET sensor, AT1R-mediated; assay type: cell-based
T1 construct: expressed in transfected cells; host or cells: HEK293SL
Protocol: HEK293SL cells were seeded at a density of 7.5 × 10^5 cells per 100-mm dish and 24 h later, transiently transfected as such. For receptor internalization experiments, cells were transfected with 0.12 μg AT1R-RlucII, B2R-RlucII, or β2AR-RlucII and 0.48 μg of either rGFP-CAAX (to assess removal from the PM) or rGFP-FYVE (to assess accumulation in the endosomes). For β-arrestin recruitment assays, cells were transfected with 0.48 μg of receptor-YFP along with 0.12 μg of β-arrestin-RlucII. For β-arrestin/AP-2 binding experiments, cells were transfected with 1 μg Flag-AT1R, 1 μg β2-Adaptin-YFP, and 0.12 μg β-arrestin2-RlucII. For G protein activation, cells were transfected with 3 μg of sp-Flag-AT1R along with either 4.5 μg of the Gαq-polycistronic BRET sensor or 0.24 μg of the Gαi3-RlucII and 0.6 μg of GFP10-Gγ2 and Gβ1 sensors or 0.12 μg PKN-RBD-RlucII and 0.48 μg of rGFP-CAAX. For PKC activation, cells were transfected with 3 μg of sp-Flag-AT1R and 0.18 μg of the PKC sensor. For GTPase activation experiments, cells were transfected with 1 μg Flag-AT1R, 0.48 μg of rGFP-CAAX, and either 0.12 μg of GGA3-PBD-RlucII, PAK-CRIB-RlucII or Raf-RBD-RlucII. For biosensor validation experiments, cells were additionally transfected with 500 ng Flag-K-Ras-WT, Flag-K-Ras-G12V, Flag-K-Ras-SOS-CAAX, HA-ARF6-WT, HA-ARF6-T27N, Myc-Rac1-WT, Myc-Rac1-Q61L or Myc-Rac1-T17N. For PI3K/Akt activation experiments, cells were transfected with 0.48 μg of rGFP-CAAX and 0.12 μg of Akt (PH)-RlucII. After 18 h of transfection, the media was replaced and cells were divided for subsequent experiments. Cells were detached and seeded onto poly-L-ornithine-coated 96-well flat white bottom plates (BrandTech Scientific) at a density of 2.5 × 10^4 cells per well in media. […] For kinetics of β-arrestin recruitment or β-arrestin binding to receptor and AP-2 experiments, cells were serum starved for 30 min, pretreated with 21 (50 µM) or Barbadin (100 µM) for 30 min, stimulated with 100 nM AngII or 1 µM BK and BRET signals were monitored at indicated times using a Victor X Light plate reader (PerkinElmer). […] The BRET ratio was determined by calculating the ratio of the light emitted by YFP over the light emitted by the RlucII. […] For the kinetics of GTPase and PI3K/Akt activation, cells were serum starved, pretreated with 21 (50 µM) or Wortmannin (200 nM) for 30 min, stimulated with ligand (100 nM AngII or 100 ng/ml EGF) and BRET signals were monitored at indicated times. […] BRET signals were monitored using a Synergy2 (BioTek) microplate reader and coelenterazine 400a (final concentrations of 5 µM) added 3–5 min prior to BRET measurements. […] The BRET ratio was determined by calculating the ratio of the light emitted by rGFP/GFP10 over the light emitted by the RlucII.

T1 sequence (P50148 whole entry): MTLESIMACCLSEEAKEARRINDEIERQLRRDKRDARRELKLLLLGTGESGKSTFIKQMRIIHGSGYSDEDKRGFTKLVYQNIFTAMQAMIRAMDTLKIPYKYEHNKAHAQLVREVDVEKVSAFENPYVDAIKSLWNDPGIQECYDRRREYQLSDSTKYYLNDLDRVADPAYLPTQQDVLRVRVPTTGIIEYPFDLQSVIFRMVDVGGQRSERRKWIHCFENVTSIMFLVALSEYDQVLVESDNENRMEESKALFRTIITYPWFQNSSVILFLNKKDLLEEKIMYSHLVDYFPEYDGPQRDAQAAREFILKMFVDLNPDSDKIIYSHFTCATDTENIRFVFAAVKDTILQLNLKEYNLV
T1 sequence (P62873 whole entry partner): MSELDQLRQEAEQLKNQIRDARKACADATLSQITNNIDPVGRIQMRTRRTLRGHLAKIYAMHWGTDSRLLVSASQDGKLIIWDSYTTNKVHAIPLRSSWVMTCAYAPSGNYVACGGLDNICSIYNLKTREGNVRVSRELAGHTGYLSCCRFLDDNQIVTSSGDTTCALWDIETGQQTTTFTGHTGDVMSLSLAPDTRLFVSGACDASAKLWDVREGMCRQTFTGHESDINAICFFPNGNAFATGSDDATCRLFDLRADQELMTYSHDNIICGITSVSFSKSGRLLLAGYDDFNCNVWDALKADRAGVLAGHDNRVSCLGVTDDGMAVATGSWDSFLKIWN
T1 sequence (P63211 2-71 partner limits assumed): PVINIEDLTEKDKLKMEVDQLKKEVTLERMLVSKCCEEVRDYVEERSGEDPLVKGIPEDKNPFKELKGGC

## CC(C)C(=O)N1CCN(c2ccc(NC(=O)c3cc4ccccc4o3)cc2Cl)CC1 [Compound 21]
[1]; 50 μM
  MAPK response promoted by EGFR: blocked MAPK responses
[1]; time 0 min
  p-ERK1/2 over ERK1/2, normalized to basal (0 min), EGFR: 1
[1]; time 2 min
  p-ERK1/2 over ERK1/2, normalized to basal (0 min), EGFR: 0.3674 and 5.171 and 13.8891 and 0.7219
[1]; time 5 min
  p-ERK1/2 over ERK1/2, normalized to basal (0 min), EGFR: 0.3034 and 7.285 and 51.2032 and 0.6227
[1]; Homo sapiens, read-out: IC50 for inhibition of ERK1/2 activation by EGFR
  IC50: 4 µM
[1]; Log [Comp 21] (M) -4.3
  ERK 1/2 activation, EGFR (p-ERK1/2 over ERK1/2, fold over basal): 3.411 percent compared to DMSO and 1.173 percent compared to DMSO
[1]; Log [Comp 21] (M) -5
  ERK 1/2 activation, EGFR (p-ERK1/2 over ERK1/2, fold over basal): 5.269 percent compared to DMSO and 7.4638 percent compared to DMSO and 1.3341 percent compared to DMSO
[1]; Log [Comp 21] (M) -5.3
  ERK 1/2 activation, EGFR (p-ERK1/2 over ERK1/2, fold over basal): 22.8883 percent compared to DMSO and 78.7892 percent compared to DMSO and 45.9513 percent compared to DMSO
[1]; Log [Comp 21] (M) -6
  ERK 1/2 activation, EGFR (p-ERK1/2 over ERK1/2, fold over basal): 104.782 percent compared to DMSO and 74.7611 percent compared to DMSO
[1]; Log [Comp 21] (M) -6.3
  ERK 1/2 activation, EGFR (p-ERK1/2 over ERK1/2, fold over basal): 80.4826 percent compared to DMSO and 84.8524 percent compared to DMSO
[1]; Log [Comp 21] (M) -7
  ERK 1/2 activation, EGFR (p-ERK1/2 over ERK1/2, fold over basal): 108.069 percent compared to DMSO and 86.5762 percent compared to DMSO
Gαq
  Mean Diff. DMSO vs. compound, Gq (Dunnett's multiple comparisons test): 0.009667
Gαq; 50 μM
  Gαq engagement by AT1R (BRET sensor): lack of inhibitory effects
Gαq; listed as Comp 21
  Gq BRET sensor signal (S_Fig.4b), single experiments: 0.1945 and 0.171 and 0.2095
